Reference: article PMC6887851, “A Chemical-Intervention Strategy To Circumvent Peptide Hydrolysis by D-Stereoselective Peptidases” (Journal of Medicinal Chemistry, 2019)
Where a SMILES comes first, the peptide text is derived from it. [ ]: non-standard residue; d: D form. The star is where a group is joined. dDab = NCC[C@@H](N)C(=O)O; Octanoyl = CCCCCCCC(=O)*; Dab = NCC[C@H](N)C(=O)O

Experiments:
[1] = tested on: S. aureus NCTC 10788; assay type: cell-based, Staphylococcus aureus; settings: NCTC 10788, 18 h
Experimental: (§1) Minimum inhibitory concentrations (MICs) were determined according to Clinical and Standards Laboratory Institute (CLSI) guidelines. Briefly, peptides were dissolved in Muller–Hinton broth (MHB) and serial dilutions made across a 96-well plate. Each well was inoculated with a suspension of the required bacterial strain to reach a final inoculum of 5 × 10^5 colony forming units per mL. The MIC was taken as the lowest concentration with no visible (cloudy suspension) growth after 18 h. The antimicrobial activity of each peptide was determined in duplicate in three independent experiments and found to be consistent across all experiments.

[2] = tested on: D-peptidase BogQ; experiment: Peptide hydrolysis assay with BogQ (UPLC–MS cleavage ratio); assay type: in vitro ADME; settings: BogQ 20 nM, substrate 50 μM, 25% PBS buffer pH 7.4, 37 °C, end-point after 1 h incubation, cleavage ratio by UPLC–MS, two independent experiments
Experimental: (§2) For expression of D-peptidases, the recombinant strain E. coli BL21 carrying pET-28a-bogQ or pET-24a-triFpep was cultured overnight at 37 °C in LB medium. This was diluted 1:100 into 100 mL of LB medium containing 50 μg/mL kanamycin and incubated at 37 °C until OD600 = 0.4–0.6 was reached. The culture was incubated at 15 °C for 30 min, and isopropyl β-D-1-thiogalactopyranoside was added to a final concentration of 200 μM.[17] The target proteins purified using Ni-NTA purification. The assay mixture (total volume 30 μL in 25% PBS buffer, pH 7.4), containing purified protein (BogQ, 20 nM or TriFpep 200 nM) and synthetic analogues (50 μM), was incubated for 1 h (BogQ) or 24 h (TriFpep) at 37 °C. Reactions were quenched with three volumes of cold methanol (90 μL) and centrifuged at 15 000 rpm for 10 min to precipitate protein. The supernatant (2 μL) was subjected to UPLC–MS analysis for the determination of cleavage ratios.[17] Assays were repeated in two independent experiments and results consistent across both.

[3] = tested on: E. coli NCTC 12241; assay type: cell-based, Escherichia coli; settings: NCTC 12241, 18 h
Experimental: as §1

[4] = tested on: TriFpep (peptidase domain of D-peptidase TriF); experiment: Peptide hydrolysis assay with TriFpep (UPLC–MS cleavage ratio); assay type: in vitro ADME, Paenibacillus polymyxa CICC10580; settings: Paenibacillus polymyxa; TriFpep 200 nM, substrate 50 μM, 25% PBS buffer pH 7.4, 37 °C, end-point after 24 h incubation, cleavage ratio by UPLC–MS, two independent experiments
Experimental: Having determined that N- or α-methylation of position 9 in the tridecaptins substantially improves resistance to hydrolysis by BogQ, we next tested if modifying the 6 position could overcome TriF hydrolysis at D-Trp5. TriFpep, the soluble periplasmic peptidase domain of TriF, was used in these assays. […] Oct-TriA2(6-Sar) (20) and Oct-TriA2(6-Aib) (21) were synthesized and found to be completely resistant to TriF and retain strong activity (3.13 μg/mL) against E. coli. […] Discovering that a simple substitution of Ser6 with Sar or Aib provides complete TriF resistance with negligible loss in activity is a welcome development.
as §2, with “Reactions were quenched with three volumes of cold methanol (90 μL) and centrifuged at 15 000 rpm for 10 min to precipitate protein. The supernatant (2 μL) was subjected to UPLC–MS analysis for the determination of cleavage ratios.[17] Assays were repeated in two independent experiments and results consistent across both.” left out

SMILES: CCCCCCCC(=O)N[C@@H](C(=O)N[C@@H](CCN)C(=O)NCC(=O)N[C@H](CO)C(=O)N[C@H](Cc1c[nH]c2ccccc12)C(=O)N[C@@H](CO)C(=O)N[C@@H](CCN)C(=O)N[C@H](CCN)C(=O)N[C@@H](Cc1ccccc1)C(=O)N[C@@H](CCC(=O)O)C(=O)N[C@H](C(=O)N[C@@H](C(=O)N[C@@H](C)C(=O)O)C(C)C)C(C)C)C(C)C [compound 14, Oct-TriA2 (2-Dab)] (Octanoyl-[dV][Dab]G[dS][dW]S[Dab][dDab]FEV[dV]A-OH)
- MIC (μg/mL) Sa [1]: >50 µg/mL

SMILES: CCCCCCCC(=O)N[C@@H](C(=O)N[C@H](CCN)C(=O)NCC(=O)N[C@H](CO)C(=O)N[C@H](Cc1c[nH]c2ccccc12)C(=O)N[C@@H](CO)C(=O)N[C@@H](CCN)C(=O)N[C@H](CCN)C(=O)NC(C)(Cc1ccccc1)C(=O)N[C@@H](CCC(=O)O)C(=O)N[C@H](C(=O)N[C@@H](C(=O)N[C@@H](C)C(=O)O)C(C)C)C(C)C)C(C)C (some centres unmarked) [compound 16, Oct-TriA2 (9-αMePhe)]
- MIC (μg/mL) Sa [1]: >50 µg/mL
- metabolised at 1 h, 50 μM [2]: 39%

SMILES: CCCCCCCC(=O)N[C@@H](C(=O)N[C@H](CCN)C(=O)NCC(=O)N[C@H](CO)C(=O)N[C@H](Cc1c[nH]c2ccccc12)C(=O)N(C)CC(=O)N[C@@H](CCN)C(=O)N[C@H](CCN)C(=O)NC(C)(Cc1ccccc1)C(=O)N[C@@H](CCC(=O)O)C(=O)N[C@H](C(=O)N[C@@H](C(=O)N[C@@H](C)C(=O)O)C(C)C)C(C)C)C(C)C (some centres unmarked) [compound 23, Oct-TriA2 (6-Sar, 9-αMePhe)]
- MIC (μg/mL) Ec [3]: >50 µg/mL
- MIC (μg/mL) Sa [1]: >50 µg/mL
- metabolised at 1 h, 50 μM [2]: 39%
- metabolised at 24 h [4]: 0%

SMILES: CCCCCCCC(=O)N[C@@H](C(=O)N[C@H](CCN)C(=O)NCC(=O)N[C@H](CO)C(=O)N[C@H](Cc1c[nH]c2ccccc12)C(=O)N(C)CC(=O)N[C@@H](CCN)C(=O)N[C@H](CCN)C(=O)NC(C)(Cc1ccccc1)C(=O)N[C@@H](CCC(=O)O)C(=O)N[C@H](C(=O)N[C@@H](C(=O)N[C@@H](C)C(=O)O)[C@@H](C)CC)C(C)C)C(C)C (some centres unmarked) [compound 25, Oct-TriA2 (6-Sar, 9-αMePhe)]
- MIC (μg/mL) Ec [3]: >50 µg/mL
- MIC (μg/mL) Sa [1]: >50 µg/mL
- metabolised at 1 h, 50 μM [2]: 40%
- metabolised at 24 h [4]: 0%
